{
  "source": "patent US10092000B2",
  "about": "“Structure, synthesis, and applications for oligo phenylene ethynylenes (OPEs)” (STC.UNM, priority 2010, dated 2018)",
  "key": {"S.epidermis": {"tested_on": "S.epidermis", "assay": "Dead/live assay, biocidal activity against S.epidermis", "format": "cell-based, Staphylococcus epidermis", "conditions": "under 365 nm radiation", "protocol": "Dead/live assays were performed to test the biocidal activity of EO-OPE-1(C3, A), EO-OPE-1 (C2, A), EO-OPE-1 (C3, S) and EO-OPE-1 (Th, C3, A) against E.coli, S.epidermis, and S.aureus. E.coli, S.epidermis, and S.aureus were cultured in 50 mL of Difco™ Nutrient broth (LOT 4057492, Becton, Dickinson and Company, Sparks, Md. 21152 USA), Difco™ Nutrient broth (LOT 4057492, Becton, Dickinson and Company, Sparks, Md. 21152 USA), and BBL™ Brain Heart Infusion (LOT 8263271, Becton, Dickinson and Company, Sparks, Md. 21152 USA), respectively, for 18 h at 37° C. under shaking. The bacteria were collected by centrifuging 50 mL of culture at 4,000 rpm in an Eppendorf centrifuge for 15 min at 4° C. […] Bacterial concentrations were measured and normalized using a disposal hemocytometer (INCYTO Co., Ltd), counts being 2.5˜3.0×10^7/mL. […]\nDead/live assays were carried out using two sets of stains: SYTO 9/Propidium iodide for E.coli and SYTO 24/Propidium iodide for S.epidermis and S.aureus. SYTO 9 and SYTO 24 are cell membrane permeant nucleic acid stains with green (˜498 nm for SYTO 9 and ˜515 nm for SYTO 24) fluorescence and used to stain both live and dead cells; Propidium iodide is a red-fluorescent nucleic acid stain that is membrane impermeable to viable cells but stains DNA or RNA of dead cells with comprised membranes and emits red (˜617 nm) fluorescence, indicating cell death. […]"}, "S.aureus": {"tested_on": "S.aureus", "assay": "Dead/live assay, biocidal activity against S.aureus", "format": "cell-based", "protocol": "Dead/live assays were performed to test the biocidal activity of EO-OPE-1(C3, A), EO-OPE-1 (C2, A), EO-OPE-1 (C3, S) and EO-OPE-1 (Th, C3, A) against E.coli, S.epidermis, and S.aureus. E.coli, S.epidermis, and S.aureus were cultured in 50 mL of Difco™ Nutrient broth (LOT 4057492, Becton, Dickinson and Company, Sparks, Md. 21152 USA), Difco™ Nutrient broth (LOT 4057492, Becton, Dickinson and Company, Sparks, Md. 21152 USA), and BBL™ Brain Heart Infusion (LOT 8263271, Becton, Dickinson and Company, Sparks, Md. 21152 USA), respectively, for 18 h at 37° C. under shaking. The bacteria were collected by centrifuging 50 mL of culture at 4,000 rpm in an Eppendorf centrifuge for 15 min at 4° C. The pellet was re-suspended with the assistance of vortex in 25 mL of 0.85% NaCl solution and repelleted. The wash cycle was repeated twice. Bacterial concentrations were measured and normalized using a disposal hemocytometer (INCYTO Co., Ltd), counts being 2.5˜3.0×10^7/mL. The diluted bacteria suspension was added to 1.5 mL of black and transparent microtubes in aliquots of 500 μL for dark and light samples, respectively. Three groups of live controls were prepared with cells suspended in black microtubes, transparent microtubes, and quartz cuvettes at the same concentrations, but without chemicals. These bacteria samples were titrated by OPEs with various concentrations followed by staying in dark for dark samples/controls and exposing to UV irradiation in a photoreactor chamber for light samples/controls with certain duration.\nDead/live assays were carried out using two sets of stains: SYTO 9/Propidium iodide for E.coli and SYTO 24/Propidium iodide for S.epidermis and S.aureus. SYTO 9 and SYTO 24 are cell membrane permeant nucleic acid stains with green (˜498 nm for SYTO 9 and ˜515 nm for SYTO 24) fluorescence and used to stain both live and dead cells; Propidium iodide is a red-fluorescent nucleic acid stain that is membrane impermeable to viable cells but stains DNA or RNA of dead cells with comprised membranes and emits red (˜617 nm) fluorescence, indicating cell death. Upon the completion of the above treatment, a 1 to 1 ratio mixture of the two dyes was prepared and added into the samples (2.4 μL mixed dyes for 500 μL suspension) and incubated for 15 minutes in the dark. Bacteria were then examined under a 40× oil objective on a Zeiss LSM 510 Meta confocal laser scanning microscope and an Accuri C6 flow cytometer to identify and quantify those live and dead bacteria.\nExperiments similar to those described in Example 1 above were performed using TM and OPE1-DABCO against S. Aureus. FIG. 22 is a graph showing TM vs. 7×10^7/mL S. aureus under light and dark conditions at concentrations of 0.1 and 1 μg/mL and at various time points (5, 10, 15, 30, 45, and 60 minutes). FIG. 23 is a graph showing EO-OPE1-DABCO vs 6×10^7/mL S. aureus under light and dark conditions at different concentrations of 0.1, 1, and 5 μg/mL and at various time points. FIG. 24 is a graph showing EO-OPE1-DABCO vs S. Aureus under light and dark conditions at a concentration of 1 μg/mL and at various time points. FIG. 25 is a graph showing EO-OPE1-DABCO vs S. Aureus under light and dark conditions at different concentrations of 0.1 and 1 μg/mL and at various time points."}, "[1]": {"assay": "Absorption and fluorescence spectroscopy", "format": "physicochemical", "protocol": "(§1) Photophysical study. For the absorption and fluorescence spectroscopy, we prepared a stock solution with concentration of 1 mM oligomer and 10% v/v solution of DMSO in H2O. 30 μL of the sonicated suspension of each EO-OPE-1 was diluted into 3 mL solution in a quartz cuvette to give a concentration of 10 μM. Absorption and fluorescence were performed on plate reader (SpectroMax M-5 microplate reader, Molecular Devices) at 24° C. Transient absorption spectra were recorded for EO-OPE-1 samples in both methanol and water. Transient absorption spectra were collected using laser systems that are described elsewhere 1, 2. The optical density was adjusted to 0.7 at the excitation wavelength (355 nm) with the laser energy being 6-7 mJ. Solutions were purged with argon for […] before making transient absorption spectroscopy measurements."}, "[2]": {"assay": "Transient absorption spectroscopy (triplet state)", "format": "physicochemical", "protocol": "as §1\nSinglet oxygen generation. Excited triplet state (ETS) plays an essential role in the generation of ROS and 1O2. […] Another important point to note is that all members of EO-OPE-1 series underwent fast photobleaching in water during TA experiments (approximately 40-50% reduction in signal intensity). To minimize the error due to photobleaching, fresh samples were prepared and used in each run. […] On the other hand, the triplet lifetimes for EO-OPE-1(C3, A), EO-OPE-1 (C2, A), EO-OPE-1 (C3, S), and EO-OPE-1 (Th, C3, A) are 5.2 μs, 17.9 μs, 18.7 μs, and 7.2 μs, respectively. Based on the above discussions, we would expect C will give a higher yield of 1O2, with lower yields for EO-OPE-1 (C2, A), EO-OPE-1(C3, A), and EO-OPE-1 (C3, S)."}, "T4 phage": {"tested_on": "T4 phage", "assay": "TEM of viral morphology damage, T4", "parameters": "species or system Bacteriophage T4", "conditions": "50 ug/ml, dark and irradiated (FIGS. 33, 35, 37, 39)", "protocol": "Transmission Electron Microscopy. High concentration of model viruses (˜10^11 PFU/ml for T4 phage, ˜10^12 PFU/ml for MS2 phage) and CPE/OPE (50 ug/ml) was used for TEM imaging (TEM images were generated in the UNM Electron Microscopy Shared Facility using a Hitachi H7500 transmission electron microscope.) Phage samples were prepared by adding 5 uL phage solutions onto carbon-coated copper grids (freshly cleaned by plasma cleaner) and standing for 2 minutes then rinsing with pure water. The negative stain, 2% aqueous solution of uranyl acetate, was adding onto the grids and standing for 2 minutes, the excess stain was removed by filter paper. The grid was dried in air."}, "[3]": {"tested_on": "MS2 and T4 bacteriophages", "assay": "Antiviral activity, general statement", "format": "cell-based"}},
  "note": "Where “and” joins values, the source holds several entries; their conditions need not be identical. Equal values may be shown once.",
  "data": [
    {"smiles": "C[N+](C)(C)CCCOc1ccc(C#Cc2ccc(C#Cc3ccc(OCCC[N+](C)(C)C)cc3)s2)cc1.[I-].[I-]", "note": "[EO-OPE-1 (Th, C3, A)]", "values": [
      {"measurement": "killing of S. epidermis", "setting": "S.epidermis", "value": "kill"},
      {"measurement": "log killing against S. aureus", "setting": "S.aureus; concentration as low as 5 ng/mL, half hour irradiation", "value": 5, "unit": "log"},
      {"measurement": "killing of S. aureus", "setting": "S.aureus; under 365 nm radiation", "value": "kill"},
      {"measurement": "absorbance intensity after 30 min relative to that measured at 1 min", "setting": "[1]; 10 μM in H2O", "value": "the same"},
      {"measurement": "Fluorescence quantum yields(Φf)*", "setting": "[1]; in water", "value": "0.50 and 0.46 ± 0.02"},
      {"measurement": "transient absorption (TA) intensity, comparison in words", "setting": "[2]", "value": "highest TA intensity"},
      {"measurement": "τ3/intensity in H2O", "setting": "[2]; in H2O", "value": 0.15},
      {"measurement": "τ3/λmax(nm) in H2O", "setting": "[2]; in H2O", "value": 510, "unit": "nm"},
      {"measurement": "τ3/μs in H2O (triplet lifetime)", "setting": "[2]; in H2O", "value": 7.2, "unit": "μs"},
      {"measurement": "morphology of treated T4 phage by TEM", "setting": "T4 phage", "value": "serious damage"},
      {"measurement": "antiviral activity", "setting": "[3]", "value": "significant antiviral activity"}
    ]}
  ]
}
